Measured values published in patent publication US10245255B2, “Compositions and methods for the treatment of obesity and related disorders” (THE REGENTS OF THE UNIVERSITY OF MICHIGAN, priority 2011, dated 2019).
Entries after “also recorded” stand apart in the source; their conditions may differ.

What was measured:
[1] = Diet-induced obesity treatment group: insulin tolerance test; type: in vivo, C57BL/6 mice
Method: (§1) Wild type male C57BL/6 mice were fed a high fat diet consisting of 45% of calories from fat (D12451 Research Diets Inc., New Brunswick, N.J.) starting at 8 weeks of age for 12-24 weeks, while normal diet C57BL/6 controls were maintained on normal chow diet consisting of 4.5% fat (5002 Lab Diet, Philadelphia, Pa.). Diets containing ω-3 fatty acids were fed as previously described 24. Rosiglitazone treatment was administered for three weeks by addition of the compound to the diet in mice that had been on HFD for 16 weeks. Each mouse consumed on average 3.5 mg/kg rosiglitazone per day. Amlexanox was administered by daily oral gavage. […] Animals were housed in a specific pathogen-free facility with a 12-hour light/12-hour dark cycle and given free access to food and water. All animal use was in compliance with the Institute of Laboratory Animal Research Guide for the Care and Use of Laboratory Animals and approved by the University Committee on Use and Care of Animals at the University of Michigan and UCSD.
(§2) For glucose tolerance tests, after a six-hour fast mice were orally gavaged with glucose at a dose of 1.5 g/kg (C57BL/6 mice) or 1.2 g/kg (ob/ob mice). […] Blood glucose was measured at basal, 15, 30, 45, 60, 90, 120 and 180 minutes from tail blood using the One Touch Ultra glucometer (Lifescan, Milpitas, Calif.).

[2] = High fat diet prevention group: oral glucose tolerance test; type: in vivo, C57BL/6 mice; settings: 25 mg/kg for 8 weeks concurrently with high fat diet
Method: as §1, §2

[3] = High fat diet prevention group: body weight and food intake; type: in vivo, C57BL/6 mice
Method: as §1
The remaining weight of food provided was determined daily for singly housed mice. Daily food consumption was calculated from a three-day average.

[4] = Ob/ob mice: adipose tissue histology and mRNA levels; type: in vivo
Method: (§3) Tissues were fixed in formalin for 3 days. Histology was performed by the University of Michigan Cancer Center Research Histology Laboratory.
(§4) Mouse tissues were isolated, rinsed in Phosphate Buffered Saline (PBS), frozen in liquid nitrogen and stored at −80° C. until extraction. Total RNA was extracted from Liver, WAT and BAT tissues as well as differentiated 3T3-L1 cells using the RNeasy Lipid Tissue Kit (Qiagen, Valencia, Calif.) according to the manufacturer's instructions with the inclusion of a DNase digestion step. Total RNA was extracted from BMDM and SVF cells using the RNeasy Kit (Qiagen, Valencia, Calif.) with a DNase step. The Superscript First-Strand Synthesis System for RTPCR (Invitrogen, Grand Island, N.Y.) was used with random primers for reverse transcription. Realtime PCR amplification of the cDNA was performed on samples in triplicate with Power SYBR Green PCR Master Mix (Applied Biosystems, Carlsbad, Calif.) using the Applied Biosystems 7900HT Fast Realtime PCR System. […] Data was analyzed using the 2-ΔΔCT method, and statistical significance was determined using the unpaired heterocedastic Student's t-test with one averaged sample value per mouse.

[5] = Diet-induced obese mice: energy expenditure (metabolic cages) and core body temperature; type: in vivo, C57BL/6 mice; settings: 25 mg/kg
Method: The University of Michigan Animal Metabolic Phenotyping Core measured oxygen consumption (VO2), carbon dioxide production (VCO2) and spontaneous motor activity during 3 consecutive days using the Comprehensive Laboratory Monitoring System (CLAMS, Columbus Instruments), an integrated open-circuit calorimeter equipped with an optical beam activity monitoring system. The respiratory quotient was calculated by dividing carbon dioxide production by oxygen consumption. The mean values for light and dark cycles were used to analyze statistical significance.
Rectal temperature measurements were performed using a YSI 4600 Precision thermometer (YSI, Inc., Yellow Springs, Ohio).

[6] = Diet-induced obese mice: tissue protein, phosphorylation and gene expression (liver, WAT, BAT); type: in vivo, C57BL/6 mice
Method: as §1
Tissues were homogenized in lysis buffer (50 mM Tris, pH 7.5, 5 mM EDTA, 250 mM sucrose, 1% NP40, 2 mM DTT, 1 mM sodium vanadate, 100 mM NaF, 10 mM Na4P2O7, and freshly added protease inhibitor tablet), then incubated for one hour at 4° C. Crude lysates were then centrifuged at 14,000×g for 15 minutes twice and the protein concentration was determined using BioRad Protein Assay Reagent. Samples were diluted in sodium dodecyl sulfate (SDS) sample buffer. Bound proteins were resolved by SDS-polyacrylamide gel electrophoresis and transferred to nitrocellulose membranes (Bio-Rad, Hercules, Calif.). Individual proteins were detected with the specific antibodies and visualised on film using horseradish peroxidase-conjugated secondary antibodies (Bio-Rad, Hercules, Calif.) and Western Lightning Enhanced Chemiluminescence (Perkin Elmer Life Sciences, Waltham, Mass.).
as §3, §4

SMILES: CC(C)c1ccc2oc3nc(N)c(C(=O)O)cc3c(=O)c2c1 [amlexanox, 2-amino-7-isopropyl-5-oxo-5H-chromeno[2,3-b]pyridine-3-carboxylic acid]
- insulin sensitivity (insulin tolerance test) ([1]; 25 mg/kg, established diet-induced obesity): restoration in insulin responsiveness to normal diet levels
- insulin sensitivity in normal diet-fed mice ([1]; normal diet): did not affect
- reduction in the area under the curve for glucose (oral glucose tolerance) [2]: 30-40%
- body weight compared with control diet mice ([3]; 45% fat diet, 25 or 100 mg/kg, throughout 12 weeks): maintained weights equivalent to those of control diet mice
- weight gain produced by high-fat diet ([3]; 45% fat diet, daily gavage, either dose 25 or 100 mg/kg): prevented the weight gain
- weight gain after switching to 60% fat diet ([3]; both doses 25 and 100 mg/kg, after 12 weeks on 45% fat diet): prevented substantial weight gain
- expression of Glut4 in WAT ([4]; 100 mg/kg): Increased expression
- expression of PPARγ in WAT ([4]; 100 mg/kg): Increased expression
- adipose tissue mRNA level, CD11c ([4]; 100 mg/kg for 12 weeks): marked reduction
- adipose tissue mRNA level, F4/80 ([4]; 100 mg/kg for 12 weeks): marked reduction
- adipose tissue mRNA level, IL-10 ([4]; 100 mg/kg for 12 weeks): marked reduction
- adipose tissue mRNA level, MCP-1 ([4]; 100 mg/kg for 12 weeks): marked reduction
- adipose tissue mRNA level, MIP1α ([4]; 100 mg/kg for 12 weeks): marked reduction
- adipose tissue mRNA level, Rantes ([4]; 100 mg/kg for 12 weeks): marked reduction
- adipose tissue mRNA level, TNFα ([4]; 100 mg/kg for 12 weeks): marked reduction
- infiltration of inflammatory macrophages in adipose tissue (H & E) ([4]; 100 mg/kg for 12 weeks, epididymal fat): markedly reduced
- body temperature (rectal) ([5]; compared to HFD vehicle treated mice): approximate one-degree increase
- exhaled carbon dioxide ([5]; diet induced obese mice, four-week treatment): significantly increased
- oxygen consumption (VO2) ([5]; diet induced obese mice, four-week treatment, vs vehicle): significantly increased; also recorded: significantly higher
- expression of brown fat-specific marker Cidea in BAT ([6]; HFD, 25 mg/kg daily): increased
- UCP1 protein levels in brown fat ([6]; HFD, treatment group): increased
- mitochondrial genes in brown fat ([6]; compared to control): no increases
- signaling through the mTORC1 pathway in BAT ([6]; compared to controls): Reduced signaling
- TBK1 phosphorylation in adipose tissue ([6]; diet induced obese mice): prevented
- high fat diet induction of IKKε protein in adipose tissue ([6]; diet induced obese mice): blocked
- high fat diet-induced increase of S6K phosphorylation in adipose tissue ([6]; diet induced obese mice): largely attenuated
- UCP-1 protein levels in adipose tissue ([6]; diet induced obese mice vs HFD vehicle): increased
- brown fat appearance ([6]; high fat diet): reverted to its normal appearance
- hormone sensitive lipase phosphorylation in adipose tissue ([6]; high fat diet): prevented the reduction
- BAT lipids when amlexanox treatment was stopped ([6]; high fat diet, withdrawal): lipids again accumulated
- genetic measures of hepatosteatosis ([6]; mice with diet induced obesity): similarly reduced
- IKKε protein levels in BAT ([6]; mouse, in vivo): reduced
- TBK1 protein levels in BAT ([6]; mouse, in vivo): reduced
